# Assay results published in patent US7754220B2, “Methods of inhibiting secretion of follicle-stimulating hormone and testosterone” (Takeda Pharmaceutical Company Limited, priority 2003, dated 2010).
# Assay: Level of human metastin in plasma by EIA after sustained administration
# Format: in vivo
# Settings: rat, sc, male Copenhagen rats, continuous s.c. administration by osmotic pumps at 6.0 nmol/hr, 7 days after implantation
# Protocol: Male Copenhagen rats of 8 weeks old after birth (Charles River Laboratories, US) were anesthetized by giving an intraperitoneal injection of sodium pentobarbital (Nembutal, Dainippon Pharmaceutical Co., Ltd.) in a dose of 50 mg/kg body weight. Then, two ALZET osmotic pumps (Model 2001, volume: 200 μL, rate: 1.0 μL/hr) filled with a 3 mM human metastin solution in distilled water (metastin group) or with distilled water (distilled water group) were implanted subcutaneously in rats at the back (5 rats in each group), whereby human metastin was continuously administered at a rate of 6.0 nmol/hr in the metastin group. For the intraperitoneal administration of sodium pentobarbital, a 1 mL tuberculin syringe and a 26-gauge needle (both by Terumo Co., Ltd.) were used. Following weighing the body weight 7 days after the implantation of the pumps, the animal was sacrificed by decapitation to collect blood. At the same time, the weight of testis was weighed. […] The levels of FSH (follicle-stimulating hormone), LH (luteinizing hormone) and testosterone contained in plasma were determined by radioimmunoassay (Rat Follicle Stimulating Hormone (rFSH) [^125I] Biotrack Assay System with Magnetic Separation, Rat Luteinizing Hormone (rLH) [^125I] Biotrack Assay System with Magnetic Separation, all by Amersham Biosciences, and DPC.Total Testosterone by Diagnostic Products Corporation).
structure (smiles),measurement,value
CC[C@H](C)[C@H](NC(=O)[C@H](CCC(N)=O)NC(=O)[C@H](CCCNC(=N)N)NC(=O)[C@H](CO)NC(=O)[C@H](Cc1c[nH]cn1)NC(=O)[C@@H]1CCCN1C(=O)[C@H](C)NC(=O)[C@H](CO)NC(=O)[C@H](CC(C)C)NC(=O)CNC(=O)[C@@H]1CCCN1C(=O)[C@H](CCC(N)=O)NC(=O)[C@H](CCC(N)=O)NC(=O)[C@H](CCCNC(=N)N)NC(=O)[C@H](CO)NC(=O)CNC(=O)[C@H](CO)NC(=O)[C@H](CO)NC(=O)[C@H](CCC(=O)O)NC(=O)[C@@H]1CCCN1C(=O)[C@@H]1CCCN1C(=O)[C@@H]1CCCN1C(=O)[C@H](CO)NC(=O)[C@H](CC(C)C)NC(=O)[C@H](CO)NC(=O)[C@@H](NC(=O)CN)[C@@H](C)O)C(=O)N1CCC[C@H]1C(=O)N[C@@H](C)C(=O)N1CCC[C@H]1C(=O)N[C@@H](CCC(N)=O)C(=O)NCC(=O)N[C@@H](C)C(=O)N[C@H](C(=O)N[C@@H](CC(C)C)C(=O)N[C@H](C(=O)N[C@@H](CCC(N)=O)C(=O)N[C@@H](CCCNC(=N)N)C(=O)N[C@@H](CCC(=O)O)C(=O)N[C@@H](CCCCN)C(=O)N[C@@H](CC(=O)O)C(=O)N[C@@H](CC(C)C)C(=O)N1CCC[C@H]1C(=O)N[C@@H](CC(N)=O)C(=O)N[C@@H](Cc1ccc(O)cc1)C(=O)N[C@@H](CC(N)=O)C(=O)N[C@@H](Cc1c[nH]c2ccccc12)C(=O)N[C@@H](CC(N)=O)C(=O)N[C@@H](CO)C(=O)N[C@@H](Cc1ccccc1)C(=O)NCC(=O)N[C@@H](CC(C)C)C(=O)N[C@@H](CCCNC(=N)N)C(=O)N[C@@H](Cc1ccccc1)C(N)=O)C(C)C)C(C)C [Human metastin],level at time molar at 168 h,~3.2 nM
